We go through five molecules from ChEMBL document CHEMBL3860091, “Synthesis and activity of newly designed aroxyalkyl or aroxyethoxyethyl derivatives of piperazine on the cardiovascular and the central nervous systems” (Bioorg Med Chem Lett, 2016).

Molecules are shown by their SMILES.

For experiment [1], the target named is T1, Adrenergic receptor alpha-1 (Rattus norvegicus, UniProt P15823+P23944+P43140).
T1 sequence (P15823 whole entry): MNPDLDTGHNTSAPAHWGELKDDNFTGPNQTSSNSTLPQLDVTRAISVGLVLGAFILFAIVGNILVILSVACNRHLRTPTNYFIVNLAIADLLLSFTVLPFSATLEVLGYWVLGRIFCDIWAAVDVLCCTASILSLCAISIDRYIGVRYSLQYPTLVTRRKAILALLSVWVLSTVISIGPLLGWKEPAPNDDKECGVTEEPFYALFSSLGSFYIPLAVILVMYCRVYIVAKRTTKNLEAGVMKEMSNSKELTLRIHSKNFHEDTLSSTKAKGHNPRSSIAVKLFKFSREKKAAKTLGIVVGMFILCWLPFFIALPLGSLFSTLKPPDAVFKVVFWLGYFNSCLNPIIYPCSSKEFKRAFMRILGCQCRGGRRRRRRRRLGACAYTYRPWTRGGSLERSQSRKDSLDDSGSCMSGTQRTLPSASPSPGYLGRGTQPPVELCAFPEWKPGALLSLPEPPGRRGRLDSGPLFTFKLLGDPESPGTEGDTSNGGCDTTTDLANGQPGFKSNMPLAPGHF
T1 sequence (P23944 whole entry): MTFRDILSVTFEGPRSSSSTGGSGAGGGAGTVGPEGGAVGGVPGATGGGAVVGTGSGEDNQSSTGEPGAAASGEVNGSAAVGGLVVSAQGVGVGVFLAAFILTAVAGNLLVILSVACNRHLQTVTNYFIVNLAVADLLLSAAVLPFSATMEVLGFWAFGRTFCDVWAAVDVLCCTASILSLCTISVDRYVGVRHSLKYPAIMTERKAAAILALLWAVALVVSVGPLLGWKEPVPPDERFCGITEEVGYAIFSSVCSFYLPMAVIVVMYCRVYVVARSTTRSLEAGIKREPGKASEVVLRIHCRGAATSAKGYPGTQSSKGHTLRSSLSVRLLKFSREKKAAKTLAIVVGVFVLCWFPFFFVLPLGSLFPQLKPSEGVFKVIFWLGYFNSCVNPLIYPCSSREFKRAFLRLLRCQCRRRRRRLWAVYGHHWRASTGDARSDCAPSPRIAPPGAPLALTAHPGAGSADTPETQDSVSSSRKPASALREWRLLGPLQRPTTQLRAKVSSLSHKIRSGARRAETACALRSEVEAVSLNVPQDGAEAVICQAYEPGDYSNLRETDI
T1 sequence (P43140 whole entry): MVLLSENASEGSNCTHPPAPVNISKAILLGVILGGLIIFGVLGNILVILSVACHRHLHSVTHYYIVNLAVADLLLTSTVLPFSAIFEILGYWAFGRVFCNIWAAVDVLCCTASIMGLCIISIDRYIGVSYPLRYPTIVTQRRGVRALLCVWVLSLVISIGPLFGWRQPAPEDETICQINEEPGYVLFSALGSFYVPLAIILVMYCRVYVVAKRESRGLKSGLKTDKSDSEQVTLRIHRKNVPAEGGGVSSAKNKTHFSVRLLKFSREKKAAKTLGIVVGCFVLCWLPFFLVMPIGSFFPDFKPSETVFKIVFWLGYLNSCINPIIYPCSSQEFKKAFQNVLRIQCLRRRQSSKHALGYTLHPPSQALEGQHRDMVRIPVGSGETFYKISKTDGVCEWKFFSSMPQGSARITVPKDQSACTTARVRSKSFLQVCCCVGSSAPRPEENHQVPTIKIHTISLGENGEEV
The experiment can be described thus: Displacement of [3H]prazosin from alpha1 adrenergic receptor in rat brain cerebral cortex after 30 mins by microbeta scintillation counting method. The format is tissue-based.

The species named for experiment [2] is Rattus norvegicus. The experiment can be described thus: Selectivity ratio of Ki for rat brain cerebral cortex alpha2 adrenergic receptor to Ki for rat brain cerebral cortex alpha1 adrenergic receptor.
The target of experiment [3] is T2, 5-hydroxytryptamine receptor 1A (Homo sapiens, UniProt P08908).
T2 sequence (P08908 whole entry): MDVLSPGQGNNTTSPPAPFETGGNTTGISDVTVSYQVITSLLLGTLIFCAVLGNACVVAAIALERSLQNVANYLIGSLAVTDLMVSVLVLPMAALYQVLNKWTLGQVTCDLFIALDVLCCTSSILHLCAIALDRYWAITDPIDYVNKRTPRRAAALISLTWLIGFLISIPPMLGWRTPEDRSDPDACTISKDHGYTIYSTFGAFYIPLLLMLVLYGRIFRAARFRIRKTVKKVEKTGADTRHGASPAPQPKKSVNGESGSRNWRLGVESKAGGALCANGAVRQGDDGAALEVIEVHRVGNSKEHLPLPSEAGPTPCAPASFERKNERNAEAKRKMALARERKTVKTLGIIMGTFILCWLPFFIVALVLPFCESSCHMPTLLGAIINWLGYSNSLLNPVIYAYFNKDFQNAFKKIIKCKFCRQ
The experiment can be described thus: Displacement of [3H]8-OH-DPAT from human recombinant 5-HT1A receptor expressed in membranes after 60 mins by microbeta scintillation counting method. For orientation: Displacement assays read how much labelled ligand stays bound in the presence of the test substance.

The test system of experiment [4] is Rattus norvegicus. Kind of experiment: Hypotensive activity in normotensive anesthetized Wistar rat assessed as systolic blood pressure at 1 mg/kg, iv measured 5 mins post dose (reference value: 107.4 to 148.3 mmHg). The format is functional.
For experiment [5], the system named is Rattus norvegicus. Kind of experiment: Hypotensive activity in normotensive anesthetized Wistar rat assessed as diastolic blood pressure at 1 mg/kg, iv measured 5 mins post dose (reference value: 81.6 to 115.2 mmHg). Format: functional.
Experiment [6] concerns Rattus norvegicus. The experiment can be described thus: Hypotensive activity in normotensive anesthetized Wistar rat assessed as systolic blood pressure at 1 mg/kg, iv measured 10 mins post dose (reference value: 107.4 to 148.3 mmHg). Format: functional.
The subject of experiment [7] is Rattus norvegicus. Kind of experiment: Hypotensive activity in normotensive anesthetized Wistar rat assessed as diastolic blood pressure at 1 mg/kg, iv measured 10 mins post dose (reference value: 81.6 to 115.2 mmHg). Format: functional.
Experiment [8] has as its system Rattus norvegicus. The experiment can be described thus: Hypotensive activity in normotensive anesthetized Wistar rat assessed as systolic blood pressure at 1 mg/kg, iv measured 20 mins post dose (reference value: 107.4 to 148.3 mmHg). Format: functional.
Experiment [9] has as its system Rattus norvegicus. The experiment can be described thus: Hypotensive activity in normotensive anesthetized Wistar rat assessed as diastolic blood pressure at 1 mg/kg, iv measured 20 mins post dose (reference value: 81.6 to 115.2 mmHg). The format is functional.
Experiment [10] concerns Rattus norvegicus. The experiment can be described thus: Hypotensive activity in normotensive anesthetized Wistar rat assessed as systolic blood pressure at 1 mg/kg, iv measured 30 mins post dose (reference value: 107.4 to 148.3 mmHg). The format is functional.
Experiment [11] concerns Rattus norvegicus. The experiment can be described thus: Hypotensive activity in normotensive anesthetized Wistar rat assessed as diastolic blood pressure at 1 mg/kg, iv measured 30 mins post dose (reference value: 81.6 to 115.2 mmHg). The format is functional.
Experiment [12] concerns Rattus norvegicus. The experiment can be described thus: Hypotensive activity in normotensive anesthetized Wistar rat assessed as systolic blood pressure at 1 mg/kg, iv measured 60 mins post dose (reference value: 107.4 to 148.3 mmHg). The format is functional.
Experiment [13] deals with Rattus norvegicus. The experiment can be described thus: Hypotensive activity in normotensive anesthetized Wistar rat assessed as diastolic blood pressure at 1 mg/kg, iv measured 60 mins post dose (reference value: 81.6 to 115.2 mmHg). Format: functional.
The nature of experiment [14]: Antidepressant-like activity in albino Swiss (CD-1) mouse assessed as immobility time at 10 mg/kg, ip administered 30 mins prior to test measured for last 4 mins of 6 mins observation by forced swim test (reference value: 178.3 +/- 12.3 sec). The format is functional, organism-based.

One may read the Ki as the dissociation constant of the complex between target and ligand, obtained from inhibition or displacement. As to `COc1ccccc1N1CCN(CCOCCOc2cccc(C)c2C)CC1.Cl.Cl`, the Ki in experiment [1] worked out at 28.5 nM; in experiment [3], 5 nM. Further, the Ratio Ki in the experiment listed under Rattus norvegicus [2] was found to be 31.3. Moreover, the Activity in the experiment on Rattus norvegicus [4] was 129.8 mmHg; in the experiment with Rattus norvegicus [5], 105 mmHg; in the experiment on Rattus norvegicus [6], 131 mmHg; in the experiment with Rattus norvegicus [7], 106 mmHg; in the experiment on Rattus norvegicus [8], 130.4 mmHg; in the experiment on Rattus norvegicus [9] it was 105.4 mmHg. The Activity came out at 131 mmHg in the experiment on Rattus norvegicus [10], 105.6 mmHg in the experiment on Rattus norvegicus [11], 132.6 mmHg in the experiment with Rattus norvegicus [12] and 104 mmHg in the experiment with Rattus norvegicus [13]. Further, the TIME in experiment [14] was 0.0331 h.

`Cc1cccc(OCCN2CCN(c3ccccc3)CC2)c1C.Cl.Cl`: the Ki is 159 nM in experiment [1] and 12.3 nM in experiment [3]. Also, the Ratio Ki in the experiment listed under Rattus norvegicus [2] worked out at 1.82. The Activity with Rattus norvegicus [4] is recorded as 99.8 mmHg; in the experiment with Rattus norvegicus [5] it was 75.2 mmHg; with Rattus norvegicus [6], 97.2 mmHg; with Rattus norvegicus [7], 75 mmHg; in the experiment on Rattus norvegicus [8], 96 mmHg; with Rattus norvegicus [9], 71.8 mmHg. Further, the Activity is 93 mmHg with Rattus norvegicus [10], 67.6 mmHg in the experiment on Rattus norvegicus [11], 93.4 mmHg in the experiment with Rattus norvegicus [12] and 67.6 mmHg in the experiment on Rattus norvegicus [13]. In addition, the TIME in experiment [14] was 0.0446 h.

For the molecule `Cc1cccc(Cl)c1OCCCCN1CCN(c2ccccc2)CC1.Cl.Cl`, the inhibition constant Ki in experiment [1] was 59.6 nM; in experiment [3], 4 nM. Moreover, in the experiment filed under Rattus norvegicus [2], the Ratio Ki turned out to be 8.48. Besides, the Activity was found to be 129.3 mmHg in the experiment on Rattus norvegicus [4]; 103.7 mmHg with Rattus norvegicus [5]; 127.7 mmHg with Rattus norvegicus [6]; 102.2 mmHg in the experiment with Rattus norvegicus [7]; 126.2 mmHg with Rattus norvegicus [8]; 98.8 mmHg with Rattus norvegicus [9]. Moreover, the Activity in the experiment on Rattus norvegicus [10] is recorded as 123.5 mmHg; with Rattus norvegicus [11], 97.7 mmHg; with Rattus norvegicus [12], 120 mmHg; in the experiment on Rattus norvegicus [13], 95.2 mmHg. Further, the TIME in experiment [14] came to 0.0193 h.

As for `Cc1cccc(OCCCN2CCN(c3ccccc3)CC2)c1C.Cl.Cl`, the Ki amounted to 33 nM in [1] and 5.4 nM in experiment [3]. Moreover, the Ratio Ki in the experiment filed under Rattus norvegicus [2] stood at 24.6. Also, the Activity with Rattus norvegicus [4] amounted to 143.8 mmHg; in the experiment on Rattus norvegicus [5], 111.8 mmHg; in the experiment with Rattus norvegicus [6], 138 mmHg; with Rattus norvegicus [7], 112.8 mmHg; in the experiment with Rattus norvegicus [8], 138 mmHg; in the experiment with Rattus norvegicus [9] it was 110.8 mmHg. Moreover, the Activity with Rattus norvegicus [10] came to 135.8 mmHg; in the experiment with Rattus norvegicus [11], 109 mmHg; in the experiment on Rattus norvegicus [12], 133.3 mmHg; with Rattus norvegicus [13] it was 109.7 mmHg. The TIME in experiment [14] was determined as 0.048 h.

Take `COc1ccccc1N1CCN(CCCCOc2c(C)cccc2C)CC1.Cl`: the inhibition constant (Ki) in experiment [1] was found to be 23.5 nM; in experiment [3], 2 nM. Further, the Ratio Ki in the experiment listed under Rattus norvegicus [2] amounted to 15.8. For the same molecule, the Activity is 129.5 mmHg with Rattus norvegicus [4]; 109.8 mmHg in the experiment on Rattus norvegicus [5]; 126.2 mmHg in the experiment with Rattus norvegicus [6]; 105.2 mmHg in the experiment with Rattus norvegicus [7]; 124.3 mmHg with Rattus norvegicus [8]; 103 mmHg in the experiment with Rattus norvegicus [9]. The Activity in the experiment with Rattus norvegicus [10] came to 125.5 mmHg; in the experiment with Rattus norvegicus [11], 102 mmHg; in the experiment on Rattus norvegicus [12] it was 124.7 mmHg; in the experiment with Rattus norvegicus [13], 103.8 mmHg. In addition, in experiment [14], the TIME was 0.0398 h.
